Laboratory results taken from PMC6582486, “Stapled EGFR peptide reduces inflammatory breast cancer and inhibits additional HER-driven models of cancer” (Journal of Translational Medicine, 2019).
pIC50: −log10 of the molar value. Read-outs that look alike come from different tables or passages of the source. Where a SMILES comes first, the peptide text is derived from it. Bridges are numbered along the chain shown (N, C = ends). Where no end group is shown, it is not given here. [ ]: non-standard residue; d: D form. R8 = C=CCCCCCC[C@@](C)(N)C(=O)O; S5 = C=CCCC[C@](C)(N)C(=O)O

Legend:
[1] = tested on: MCF10A breast cells; experiment: Cell viability assay (MTT), MCF10A; format: cell-based, human; settings: 72 h of treatment, maximum reduction
Text: (§1) Fig. 1 Hydrocarbon stapling leads to increased EJ1 activity in comparison to HER-directed monoclonal therapies. a EJ1 sequence with PTD4 domain (underlined) corresponding to EGFR juxtamembrane domain sequence 643–663. Stabilized alpha helix (SAH) variations 1–5 beneath, with asterisks (*) indicating sites of staple. Control peptide (CP) with altered residues indicated by double underline. Stapled control (5) asterisks (*) indicate sites of staple. b Cartoon representation of EJ1 structure, with staple variation 5 highlighted. Positively charged residues indicated in blue, negatively charged residues in red. c Cartoon representation of CP structure, with staple variation highlighted. d Cell viability assay performed in MDA-MB-468 cells after 24 h comparing unstapled EJ1 versus staple variations SAH1, SAH4, and SAH5, with increasing concentrations. e Visualization of MDA-MB-468 cells untreated, treated with 10 µM EJ1, and 10 µM SAH5-EJ1 after 60 min. Scale bars represent 50 µm. f–h Cell viability assay performed in MDA-MB-468, MCF10A, or CHO cells over 3 days comparing treatment with Sapitinib (blue lines), SAH5-EJ1 (red lines), and SAH5-CP (grey lines). […] Absorbance was read at 540 nm by plate reader (uQuant, Bio-Tek Instruments). P-values were calculated from a one-way ANOVA.

[2] = tested on: CHO cells; experiment: Cell viability assay (MTT), CHO; format: cell-based, Chinese Hamster; settings: up to 3 days
Text: as §1

[3] = tested on: SUM149 inflammatory breast cancer cells; format: cell-based; settings: SUM149, 10 µM
Method: 1000–3000 cells were plated in 96-well plates (Falcon; Corning, NY) and allowed to adhere for 24–48 h prior to therapeutic introduction. Compounds were added and incubated on cells for 3 days in serum-containing media, followed by 2 h treatment with MTT (Sigma M5655) with the resulting formazan solubilized in DMSO. Absorbance was read at 540 nm by plate reader (uQuant, Bio-Tek Instruments). P-values were calculated from a one-way ANOVA.
Fig. 4 SAH5-EJ1 effectively treats models of basal and inflammatory breast cancers while increasing survival. a Changes in tumor burden in breast cancer PDX mouse model TM01278 with various concentrations of intravenous SAH5-EJ1. Control represents water as a vehicle control. *p < 0.05 (Control vs 1 µg/g); **p < 0.01 (Control vs 1 µg/g and vs 10 µg/g). N = 6 for each condition. b Kaplan–Meier curve of breast PDX mouse model treated with control (blue) or either 1 or 10 µg/g SAH5-EJ1 (green and red, respectively) (red asterisks indicate time point at which mice could no longer receive injections due to site toxicity). Data shown represent mean. N = 6 for all groups. c Cell viability assay performed in SUM149 cells over 3 days comparing treatment with Sapitinib (blue) to SAH5-EJ1 (red) and SAH5-CP (grey). Solid lines represent 24 h; dashed lines represent 72 h. Data shown represent mean ± percent difference of assays performed in triplicate. d Kaplan–Meier curve of inflammatory breast cancer SUM149-injected mouse model treated with injected control (water) (blue) or either 0.5 or 5 µg/g SAH5-EJ1 (green and red, respectively). Data shown represent mean. N = 8 for all groups. e Changes in tumor burden in SUM149-generated tumors with various doses of SAH5-EJ1. Control represents water (blue). Arrow indicates transition from intravenous (IV) SAH5-EJ1 injections to intraperitoneal (IP) on day 66. **p < 0.01 (Control vs 0.5 µg/g and vs 5 µg/g). Data shown represent mean ± standard deviation. N = 8 for all groups. f Images of mouse tumors taken on Day 116. Arrowheads indicate tumor site. Representative images selected. […]

[4] = tested on: MDA-MB-468 breast cancer cells; format: cell-based, human; settings: 24 h
Text: Fig. 1 Hydrocarbon stapling leads to increased EJ1 activity in comparison to HER-directed monoclonal therapies. a EJ1 sequence with PTD4 domain (underlined) corresponding to EGFR juxtamembrane domain sequence 643–663. Stabilized alpha helix (SAH) variations 1–5 beneath, with asterisks (*) indicating sites of staple. Control peptide (CP) with altered residues indicated by double underline. Stapled control (5) asterisks (*) indicate sites of staple. b Cartoon representation of EJ1 structure, with staple variation 5 highlighted. Positively charged residues indicated in blue, negatively charged residues in red. c Cartoon representation of CP structure, with staple variation highlighted. d Cell viability assay performed in MDA-MB-468 cells after 24 h comparing unstapled EJ1 versus staple variations SAH1, SAH4, and SAH5, with increasing concentrations. e Visualization of MDA-MB-468 cells untreated, treated with 10 µM EJ1, and 10 µM SAH5-EJ1 after 60 min. Scale bars represent 50 µm. f–h Cell viability assay performed in MDA-MB-468, MCF10A, or CHO cells over 3 days comparing treatment with Sapitinib (blue lines), SAH5-EJ1 (red lines), and SAH5-CP (grey lines). […] Data shown in d, f, g–i represent mean ± percent difference of assays performed in triplicate 1000–3000 cells were plated in 96-well plates (Falcon; Corning, NY) and allowed to adhere for 24–48 h prior to therapeutic introduction. Compounds were added and incubated on cells for 3 days in serum-containing media, followed by 2 h treatment with MTT (Sigma M5655) with the resulting formazan solubilized in DMSO. Absorbance was read at 540 nm by plate reader (uQuant, Bio-Tek Instruments). P-values were calculated from a one-way ANOVA.

[5] = cited from earlier work
Text: Despite variations in extracellular ligand binding abilities and intracellular tyrosine kinase activity, HER1-3 share homology in their juxtamembrane domain [15]. Within the juxtamembrane domain are sequences responsible for targeting HER proteins to the nucleus, binding to calcium/calmodulin, trafficking to the basolateral domain from the trans-Golgi network, and dimerization, an event required for HER activation and downstream signaling.

CNC(=O)CN1CCC(Oc2cc3c(Nc4cccc(Cl)c4F)ncnc3cc2OC)CC1 [Sapitinib, reference compound]
reduction of cell viability [1]: ≤ 70% | efficacy / response in words [2]: limited efficacy | cell viability ([3]; 24 h): no reduction in cell viability | cell viability ([3]; 3 days): 35%

YARAAARQARAFMRRRHIVRKRTLRRLLQERE [EJ1]
pIC50 [4]: 4.74 | time to degradation when introduced to plasma [5]: less than 5 min

CC[C@H](C)[C@@H]1NC(=O)[C@H](Cc2c[nH]cn2)NC(=O)[C@H](CCCNC(=N)N)NC(=O)[C@H](CCCNC(=N)N)NC(=O)[C@H](CCCNC(=N)N)NC(=O)[C@](C)(NC(=O)[C@H](Cc2ccccc2)NC(=O)[C@H](C)NC(=O)[C@H](CCCNC(=N)N)NC(=O)[C@H](C)NC(=O)[C@H](CCC(N)=O)NC(=O)[C@H](CCCNC(=N)N)NC(=O)[C@H](C)NC(=O)[C@H](C)NC(=O)[C@H](C)NC(=O)[C@H](CCCNC(=N)N)NC(=O)[C@H](C)NC(=O)[C@@H](N)Cc2ccc(O)cc2)CCCCCCC=CCCC[C@@](C)(C(=O)N[C@@H](CCCCN)C(=O)N[C@@H](CCCNC(=N)N)C(=O)N[C@H](C(=O)N[C@@H](CC(C)C)C(=O)N[C@@H](CCCNC(=N)N)C(=O)N[C@@H](CCCNC(=N)N)C(=O)N[C@@H](CC(C)C)C(=O)N[C@@H](CC(C)C)C(=O)N[C@@H](CCC(N)=O)C(=O)N[C@@H](CCC(=O)O)C(=O)N[C@@H](CCCNC(=N)N)C(=O)N[C@@H](CCC(=O)O)C(N)=O)[C@@H](C)O)NC(=O)[C@H](C(C)C)NC1=O [SAH4-EJ1] (H-YARAAARQARAF[R8]RRRHIV[S5]KRTLRRLLQERE-NH2; staple 13-20)
pIC50 [4]: 5.00

CC[C@H](C)[C@H](NC(=O)[C@H](Cc1c[nH]cn1)NC(=O)[C@H](CCCNC(=N)N)NC(=O)[C@H](CCCNC(=N)N)NC(=O)[C@H](CCCNC(=N)N)NC(=O)[C@H](CCSC)NC(=O)[C@H](Cc1ccccc1)NC(=O)[C@H](C)NC(=O)[C@H](CCCNC(=N)N)NC(=O)[C@H](C)NC(=O)[C@H](CCC(N)=O)NC(=O)[C@H](CCCNC(=N)N)NC(=O)[C@H](C)NC(=O)[C@H](C)NC(=O)[C@H](C)NC(=O)[C@H](CCCNC(=N)N)NC(=O)[C@H](C)NC(=O)[C@@H](N)Cc1ccc(O)cc1)C(=O)N[C@]1(C)CCCCCCC=CCCC[C@@](C)(C(=O)N[C@@H](CC(C)C)C(=O)N[C@@H](CC(C)C)C(=O)N[C@@H](CCC(N)=O)C(=O)N[C@@H](CCC(=O)O)C(=O)N[C@@H](CCCNC(=N)N)C(=O)N[C@@H](CCC(=O)O)C(N)=O)NC(=O)[C@H](CCCNC(=N)N)NC(=O)[C@H](CC(C)C)NC(=O)[C@H]([C@@H](C)O)NC(=O)[C@H](CCCNC(=N)N)NC(=O)[C@H](CCCCN)NC(=O)[C@H](CCCNC(=N)N)NC1=O [SAH1-EJ1] (H-YARAAARQARAFMRRRHI[R8]RKRTLR[S5]LLQERE-NH2; staple 19-26)
pIC50 [4]: 5.00
